The test system of series [1] is RAW264.7. Put plainly: Inhibition of LPS-induced NO production in mouse RAW264.7 cells preincubated for 1 hr followed by LPS stimulation for 24 hrs by Griess assay. Format: functional, cell-based.
Series [2] concerns RAW264.7. Nature of the series: Cytotoxicity against mouse RAW264.7 cells assessed as reduction in cell viability at 3 to 60 uM after 24 hrs by MTT assay. It counts as cell-based. To be noted: raw264.7, 24 h. In general terms: Formazan colour is commonly taken as a measure of viable cells.
Series [3] has as its system RAW264.7. Nature of the series: Inhibition of LPS-induced NO production in mouse RAW264.7 cells at 3 to 60 uM preincubated for 1 hr followed by LPS stimulation for 24 hrs by Griess assay. It counts as functional, cell-based.

The source made the active and inactive calls. The calls are words filed in the database; no cut-off is given here.

One may read the IC50 as the point on the concentration scale where inhibition reaches its midpoint.

In the series on RAW264.7 [1], `COc1cc([C@@H]2Oc3c(OC)cc(C(C)=O)cc3[C@H]2CO)cc(OC)c1O[C@@H]1O[C@H](CO)[C@@H](O)[C@H](O)[C@H]1O` gave an IC50 of 32.4 µM. Further, in the series with RAW264.7 [2], the Activity result is “Non-Toxic”.
Take `COc1cc([C@@H]2Oc3c(OC)cc(C(C)=O)cc3[C@H]2CO)cc(OC)c1O[C@@H]1O[C@H](CO[C@@H]2O[C@H](CO)[C@@H](O)[C@H](O)[C@H]2O)[C@@H](O)[C@H](O)[C@H]1O`: the Activity entry in the series on RAW264.7 [2] was “Non-Toxic”. For the same compound, in the series with RAW264.7 [3], the inhibition entry is “inactive”.
On to `COc1cc([C@H]2OC[C@H]3[C@@H]2CO[C@@H]3c2cc(OC)c(O[C@@H]3O[C@H](CO)[C@@H](O)[C@H](O)[C@H]3O)c(OC)c2)cc(OC)c1O[C@@H]1O[C@H](CO)[C@@H](O)[C@H](O)[C@H]1O` [LIRIODENDRIN], for which, in the series with RAW264.7 [2], the Activity entry was “Non-Toxic”. Moreover, the inhibition entry with RAW264.7 [3] was “inactive”.
`COc1cc(C[C@@H](CO[C@@H]2O[C@H](CO)[C@@H](O)[C@H](O)[C@H]2O)c2cc(C(C)=O)cc(OC)c2O)cc(OC)c1O`: half-maximal inhibition with RAW264.7 [1] (IC50) required 40.9 µM. Also, the Activity result in the series with RAW264.7 [2] is on record as “Non-Toxic”.
On to `O=C1/C(=C/c2ccc(O)c(O)c2)COc2cc(O)ccc21` [SAPPANONE A], for which the IC50 in the series with RAW264.7 [1] turned out to be 9.3 µM.
Compound `COc1cc([C@@H]2Oc3c(OC)cc(C(C)=O)cc3[C@H]2CO[C@@H]2O[C@H](CO)[C@@H](O)[C@H](O)[C@H]2O)cc(OC)c1O` returned a 50% inhibitory concentration (IC50) in the series with RAW264.7 [1] of 55.8 µM. The Activity entry in the series with RAW264.7 [2] is recorded as “Non-Toxic”.
Compound `COc1cc([C@@H]2Oc3c(OC)cc(C(C)=O)cc3[C@H]2CO)cc(OC)c1O` gave an IC50 with RAW264.7 [1] of 32.3 µM. In the series on RAW264.7 [2], the Activity entry was “Non-Toxic”.

Values taken from ChEMBL document CHEMBL4000216, “Lignan derivatives from Selaginella tamariscina and their nitric oxide inhibitory effects in LPS-stimulated RAW 264.7 cells” (Bioorg Med Chem Lett, 2017).
